# Earlier results, collected in patent publication US6432967B1 (Mayo Foundation for Medical Education & Research, priority 1995, dated 2002).
# Details: in vivo
smiles,measurement,value
"Nc1ccc(O)c(C(=O)O)c1 [5-ASA, 5-aminosalicylate]",fecal excretion,approximately 25%
